Reference: US10752587B2, “Homobispiperidinyl derivatives as liver X receptor beta agonists, compositions and their use” (Merck Sharp & Dohme Corp., priority 2015, dated 2020)
pEC50: −log10 of the molar value. Where two headings read alike, the source gives them in different places.

How the values were obtained:
[1] = target: T1, glutathione-S-transferase (GST) tagged LXRbeta LBD (ligand binding domain) (Homo sapiens, UniProt P55055); test: LanthaScreen TR-FRET Liver X Receptor Coactivator Assay, co-activator recruitment to LXRbeta LBD; type: biochemical; settings: for Emax: read-out: LXR beta Activity @ max dose (%); for pEC50: read-out: LXR beta IP
T1 construct: purchased Invitrogen pv4658.pps
T1 sequence (P55055 222-460 limits assumed): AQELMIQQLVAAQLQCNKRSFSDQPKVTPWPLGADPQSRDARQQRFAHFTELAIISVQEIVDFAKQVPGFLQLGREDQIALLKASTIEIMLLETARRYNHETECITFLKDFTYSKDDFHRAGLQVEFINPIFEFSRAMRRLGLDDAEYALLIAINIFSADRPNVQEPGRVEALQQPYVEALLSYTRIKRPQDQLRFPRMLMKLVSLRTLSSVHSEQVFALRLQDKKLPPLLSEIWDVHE
Method in brief: (§1)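 Efficacy (Emax) and inflection-point potency were scaled to reference agonist T0901317, acting on both LXR subtypes. Ligand-driven coactivator peptide recruitment was detected by TR-FRET after room-temperature incubation with terbium anti-GST antibody.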

[2] = target: T2, glutathione-S-transferase (GST) tagged LXRalpha LBD (ligand binding domain) (Homo sapiens, UniProt Q13133); test: LanthaScreen TR-FRET Liver X Receptor Coactivator Assay, co-activator recruitment to LXRalpha LBD; type: biochemical; settings: for Emax: read-out: LXR alpha Activity @ max dose (%); for pEC50 / LXR alpha IP (nM): potency (Inflection Point, IP), co-activator recruitment to LXRalpha LBD, in relation to T0901317; for pEC50: read-out: LXR alpha IP
T2 construct: purchased Invitrogen pv4655
T2 sequence (Q13133 209-447 limits assumed): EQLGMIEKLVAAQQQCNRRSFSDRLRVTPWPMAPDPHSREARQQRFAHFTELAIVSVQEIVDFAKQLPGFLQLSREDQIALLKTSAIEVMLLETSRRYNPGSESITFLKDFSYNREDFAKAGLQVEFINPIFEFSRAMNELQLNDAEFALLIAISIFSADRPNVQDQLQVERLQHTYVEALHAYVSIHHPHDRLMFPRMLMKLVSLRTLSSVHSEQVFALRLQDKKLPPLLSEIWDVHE
Method in brief: as §1

[3] = efficacy at max dose, in relation to reference dual agonist T0901317
[4] = potency (Inflection Point, IP), co-activator recruitment to LXRbeta LBD, in relation to T0901317

Structure (SMILES) | Emax [1, 3] [%] | pEC50 [1, 4] | Emax [2, 3] [%] | pEC50 [2] | LXR alpha IP (nM) [2] | EC50 ([1]; LXR beta IP (nM), potency (Inflection Point, IP), co-activator recruitment to LXRbeta LBD, in relation to T0901317) [nM] | Emax [1] [%] | Emax [2] [%]
CN(C)C(=O)c1ccc(N2CCC(CC3CCN(C(=O)[C@](O)(c4cccc(OCC(F)(F)F)c4)C(F)(F)F)CC3)CC2)cc1Cl [Example 2-97, 2-chloro-N,N-dimethyl-4-{4-[(1-{(2R)-3,3,3-trifluoro-2-hydroxy-2-[3-(2,2,2-trifluoroethoxy)phenyl]propanoyl}piperidin-4-yl)methyl]piperidin-1-yl}benzamide] | 20 | 7.40 | 0 | – | NO IP | – | – | –
COc1cccc(C(=O)C(=O)N2CCC(CC3CCN(c4ccc(C(=O)N(C)C)c(Cl)c4)CC3)CC2)c1 [Example 2-104, 2-chloro-4-[4-({1-[(3-methoxyphenyl) (oxo)acetyl]piperidin-4-yl}methyl)piperidin-1-yl]-N,N-dimethyl-benzamide] | 31 | 6.39 | 3 | – | NO IP | – | – | –
COc1cc(F)cc([C@@](O)(C(=O)N2CCC(CC3CCN(c4ccc(C(=O)N(C)C)c(C)c4)CC3)CC2)C(F)(F)F)c1 [Example 2-152, N,N,2-trimethyl-4-[4-({1-[(2R)-3,3,3-trifluoro-2-(3-fluoro-5-methoxyphenyl)-2-hydroxy-propanoyl]piperidin-4-yl}methyl)piperidin-1-yl]benzamide] | 74 | 7.96 | 18 | – | NO IP | – | – | –
COc1cc(Cl)cc([C@@](O)(C(=O)N2CCC(CC3CCN(c4ccc(C(=O)N(C)C)cc4)CC3)CC2)C(F)(F)F)c1 [Example 2-138, 4-[4-({1-[(2R)-2-(3-chloro-5-methoxyphenyl)-3,3,3-trifluoro-2-hydroxy-propanoyl]piperidin-4-yl}methyl)piperidin-1-yl]-N,N-dimethyl-benzamide] | 35 | 7.13 | 0 | – | NO IP | – | – | –
COc1cccc([C@@](O)(C(=O)N2CCC(CC3CCN(c4ccc(C(=O)N(C)C)c(Cl)c4)CC3)CC2)C(F)F)c1 [Example 2-106, 2-chloro-4-[4-({1-[(2R)-3,3-difluoro-2-hydroxy-2-(3-methoxy-phenyl)propanoyl]piperidin-4-yl}methyl)piperidin-1-yl]-N,N-dimethyl-benzamide] | 19 | 8.00 | 0 | – | NO IP | – | – | –
CC(C)Oc1cccc([C@@](O)(C(=O)N2CCC(CC3CCN(c4ccc(C(=O)N(C)C)cc4)CC3)CC2)C(F)(F)F)c1 [Example 2-135, N,N-dimethyl-4-{4-[(1-{(2R)-3,3,3-trifluoro-2-hydroxy-2-[3-(1-methylethoxy)phenyl]propanoyl}piperidin-4-yl)methyl]piperidin-1-yl}benzamide] | 63 | 7.36 | 3 | – | NO IP | – | – | –
CN(C)C(=O)c1ccc(N2CCC(CC3CCN(C(=O)OC(C)(C)C)CC3)CC2)cc1Cl [Example 1-1, tert-butyl 4-((1-(3-chloro-4-(dimethylcarbamoyl)phenyl)piperidin-4-yl)methyl)piperidine-1-carboxylate] | 63 | 6.87 | 22 | 6.07 | – | – | – | –
CN(C)C(=O)c1ccc(N2CCC(CC3CCN(C(=O)[C@](O)(c4cc(F)cc(Cl)c4)C(F)(F)F)CC3)CC2)cc1Cl [Example 2-102, 2-chloro-4-[4-({1-[(2R)-2-(3-chloro-5-fluorophenyl)-3,3,3-trifluoro-2-hydroxy-propanoyl]piperidin-4-yl}methyl)piperidin-1-yl]-N,N-dimethyl-benzamide] | 81 | 8.70 | 36 | 7.54 | – | – | – | –
COc1cccc([C@@](O)(C(=O)N2CCC(CC3CCN(c4ccc(C(=O)N(C)C)c(Cl)c4)CC3)CC2)C(F)(F)F)c1 [Example 2-35, 2-chloro-N,N-dimethyl-4-[4-({1-[(2R)-3,3,3-trifluoro-2-hydroxy-2-(3-methoxyphenyl)propanoyl]piperidin-4-yl}methyl)piperidin-1-yl]benzamide] | 44 | 8.10 | 6 | – | NO IP | – | – | –
CCC(O)(C(=O)N1CCC(CC2CCN(c3ccc(C(=O)N(C)C)c(Cl)c3)CC2)CC1)c1ccccc1 (stereo not shown) [Example 2-32, 2-chloro-4-(4-{[1-(2-hydroxy-2-phenyl-butanoyl)piperidin-4-yl]methyl}piperidin-1-yl)-N,N-dimethyl-benzamide] | 55 | 7.14 | 19 | 5.85 | – | – | – | –
CN(C)C(=O)c1ccc(N2CCC(CC3CCN(C(=O)C(O)(c4cccc5ccccc45)C(F)(F)F)CC3)CC2)cc1Cl (stereo not shown) [Example 2-168, 2-chloro-N,N-dimethyl-4-(4-{[1-(3,3,3-trifluoro-2-hydroxy-2-naphthalen-1-ylpropanoyl)piperidin-4-yl]methyl}piperidin-1-yl)benzamide] | 21 | 7.24 | 0 | – | NO IP | – | – | –
COc1cccc([C@@](O)(C(=O)N2CCC(CC3CCN(c4ccc(C(=O)N(C)C)c(Cl)c4)CC3)CC2)C2CC2)c1 [Example 2-114, 2-chloro-4-[4-({1-[(2R)-2-cyclopropyl-2-hydroxy-2-(3-methoxy-phenyl)acetyl]piperidin-4-yl}methyl)piperidin-1-yl]-N,N-dimethyl-benzamide] | – | – | – | – | NO IP | 266 | 19 | 6
Cc1cc(N2CCC(CC3CCN(C(=O)[C@](O)(c4cccc(C(F)(F)F)c4)C(F)(F)F)CC3)CC2)ccc1C(=O)N(C)C [Example 2-148, N,N,2-trimethyl-4-{4-[(1-{(2R)-3,3,3-trifluoro-2-hydroxy-2-[3-(trifluoromethyl)phenyl]propanoyl}piperidin-4-yl)methyl]piperidin-1-yl}benzamide] | 62 | 7.62 | 22 | 6.40 | – | – | – | –
CN(C)C(=O)c1ccc(N2CCC(OC3CCN(C(=O)C(O)(c4cccc(Cl)c4)C(F)(F)F)CC3)CC2)cc1Cl (stereo not shown) [Example 2-24, 2-chloro-4-[4-({1-[2-(3-chlorophenyl)-3,3,3-trifluoro-2-hydroxy-propanoyl]piperidin-4-yl}oxy)piperidin-1-yl]-N,N-dimethyl-benzamide] | 99 | 7.85 | 37 | 6.33 | – | – | – | –

Now from value to molecule, other results behind:

Emax [1, 3] [%] | pEC50 [1, 4] | Emax [2, 3] [%] | pEC50 [2] | LXR alpha IP (nM) [2] | Structure (SMILES) | EC50 ([1]; LXR beta IP (nM), potency (Inflection Point, IP), co-activator recruitment to LXRbeta LBD, in relation to T0901317) [nM] | Emax [1] [%] | Emax [2] [%]
98 | 8.15 | 20 | 6.61 | – | CNC(=O)c1ccc(N2CCC(CC3CCN(C(=O)[C@](O)(c4cc(F)cc(OC)c4)C(F)(F)F)CC3)CC2)cc1Cl [Example 7-118, 2-chloro-N-methyl-4-[4-({1-[(2R)-3,3,3-trifluoro-2-(3-fluoro-5-methoxyphenyl)-2-hydroxypropanoyl]piperidin-4-yl}methyl)piperidin-1-yl]benzamide] | – | – | –
82 | 7.64 | 9 | – | NO IP | CCOc1cccc([C@@](O)(C(=O)N2CCC(CC3CCN(c4ccc(C(=O)NC)c(Cl)n4)CC3)CC2)C(F)(F)F)c1 [Example 7-137, 2-chloro-6-[4-({1-[(2R)-2-(3-ethoxyphenyl)-3,3,3-trifluoro-2-hydroxypropanoyl]piperidin-4-yl}methyl)piperidin-1-yl]-N-methylpyridine-3-carboxamide] | – | – | –
30 | 7.29 | 4 | – | NO IP | O=C(c1ccc(N2CCC(CC3CCN(C(=O)[C@](O)(c4cc(Cl)cc(Cl)c4)C(F)(F)F)CC3)CC2)cc1Cl)N1CCC[C@@H]1CO [Example 4-23, (2R)-3-(4-{[1-(3-chloro-4-{[(2R)-2-(hydroxymethyl)pyrrolidin-1-yl]carbonyl}phenyl)piperidin-4-yl]methyl}piperidin-1-yl)-2-(3,5-dichlorophenyl)-1,1,1-trifluoro-3-oxopropan-2-ol] | – | – | –
93 | 6.76 | 37 | 6.01 | – | O=C(c1ccc(N2CCC(CC3CCN(C(=O)[C@](O)(c4ccccc4)C(F)(F)F)CC3)CC2)cc1Cl)N1CC(F)(F)C1 [Example 4-8, (2R)-3-{4-[(1-{3-chloro-4-[(3,3-difluoroazetidin-1-yl)carbonyl]phenyl}piperidin-4-yl)methyl]piperidin-1-yl}-1,1,1-trifluoro-3-oxo-2-phenylpropan-2-ol] | – | – | –
51 | 8.22 | 8 | – | NO IP | CCOc1cccc([C@@](O)(C(=O)N2CCC(CC3CCN(c4ccc(C(=O)N(C)C)c(Cl)n4)CC3)CC2)C(F)(F)F)c1 [Example 7-92, 2-chloro-6-[4-({1-[(2R)-2-(3-ethoxyphenyl)-3,3,3-trifluoro-2-hydroxypropanoyl]piperidin-4-yl}methyl)piperidin-1-yl]-N,N-dimethylpyridine-3-carboxamide] | – | – | –
